Values of other authors as cited in patent US20230310434A1, “METHODS OF REDUCING THE LIKELIHOOD OF CARCINOID HEART DISEASE IN PATIENTS WITH NEUROENDOCRINE TUMORS” (TerSera Therapeutics LLC, priority 2022, published 2023).

Experiments:
[1] = system: patients with carcinoid syndrome not adequately controlled with SSA therapy; conditions: TELESTAR; TE 250 or 500 mg three times daily; patients on stable dose SSA
[2] = system: patients with carcinoid syndrome (CS) diarrhea; conditions: TELECAST
[3] = TE 250 or 500 mg three times daily, patients on stable dose SSA

SMILES: CCOC(=O)[C@@H](N)Cc1ccc(-c2cc(O[C@H](c3ccc(Cl)cc3-n3ccc(C)n3)C(F)(F)F)nc(N)n2)cc1 [TE, (S)-ethyl 2-amino-3-(4-(2-amino-6-((R)-1-(4-chloro-2-(3-methyl-1H-pyrazol-1-yl)phenyl)-2,2,2-trifluoroethoxy)pyrimidin-4-yl)phenyl)propanoate]
- frequency of bowel movements [1]: reduced
- urinary 5-HIAA levels [1]: reduced
- efficacy when added to SSAs to treat carcinoid syndrome diarrhea ([2]; TE 250 or 500 mg three times daily added to SSAs): effective
- frequency of bowel movements [2, 3]: reduced
- urinary 5-HIAA levels [2, 3]: reduced
